In patent US10375956B2, “Herbicidally active 2-(substituted-phenyl)-cyclopentane-1,3-dione compounds and derivatives thereof” (Syngenta Limited, priority 2013, dated 2019):

Assays:
Type in all cases: in vivo
Eleusine indica (ELEIN) = test: Biological Example 3 glasshouse assay, post-emergence, various adjuvant systems; conditions: 8 g/ha; for percentage control of Eleusine indica: adjuvant 0.5% v/v TEHP + 1.0% v/v AMS + 12.5% v/v IPA
Description: (§1) Post-emergence foliar spray application, 200 L/ha, usually one or two replicates for the weeds (depending on application rate), and two replicates for soybean.
(§2) Standard warm conditions (tropical), in glasshouse. Specifically, the glasshouse bay conditions are 24° C./18° C. day/night; 16/8 hours light/dark; 65% humidity.
(§3) The herbicidal application takes place at the following growth stages for plants which include inter alia one or more of the following plants (usually the herbicidal application takes place on at least the following plants: DIGSA, ELEIN, SETFA, ZEAMX, GLXMA Nikko, and GLXMA TMG133, and often also either BRADC or BRAPP):
Eleusine indica (ELEIN)—growth stage 12 or 13
(§4) Each test compound is applied with one of the following adjuvant systems (all percentages are final concentrations in the aqueous spray mixture):
(§5) Adjuvant system 2: 0.5% v/v Hexamoll™ DINCH**, 1.0% v/v AMS (ammonium sulphate) and 12.5% v/v IPA (isopropyl alcohol).
(§6) Adjuvant system 3: 0.5% v/v tris-(2-ethylhexyl)phosphate (“TEHP”), 1.0% v/v AMS (ammonium sulphate) and 12.5% v/v IPA (isopropyl alcohol).
(§7) Seeds of the weed (including volunteer) plants, typically including inter alia Digitaria sanguinalis (DIGSA), Eleusine indica (ELEIN), Setaria faberi (SETFA), Zea mays (ZEAMX, corn), and sometimes also [either Brachiaria decumbens (BRADC) or Brachiaria platyphylla (BRAPP)], are sown in seed trays (troughs) containing clay loam soil (pH 7.0, 2.2% organic matter, “Trough Mix A”); and soybean seed is sown in pots containing the same soil with 3 soybean seedlings per pot. The plants are sprayed with the test herbicide when they reach the growth stages mentioned above.
(§8) The test herbicidal solutions are prepared by mixing the appropriate aliquots of the test substance(s) and one of the adjuvant systems indicated above *** in deionised water to give the desired treatment concentration.
(§9) The herbicidal application is made as a foliar spray, using a tracksprayer. Following the herbicidal application, the plants are watered twice per day for the duration of the test.
(§10) A visual assessment of the % herbicidal damage is made 7 and 14 Days After herbicide Application (DAA) (or, in a minority of cases, 7 and 15 DAA), and the results are recorded as % visual herbicidal damage where 0%=no damage to plants and 100%=plant totally killed.
(§11) Compounds A2 and A7 were tested using the 0.5% v/v Hexamoll™ DINCH™+1.0% v/v AMS+12.5% v/v IPA adjuvant system. Compounds A11, A12, A14, A20 and A21 were tested using the 0.5% v/v tris-(2-ethylhexyl)phosphate (“TEHP”)+1.0% v/v AMS+12.5% v/v IPA adjuvant system.
(§12) The percentages of herbicidal damage/plant control, at 14 Days After herbicide Application (DAA) (or, in some cases, at 15 DAA), for the Compounds tested and for some of the plants tested, were in the following percentage ranges. For the tested compounds, the phytotoxicity results shown herein are generally the average of 2 or 3 repetitions (for the grassy weeds including corn) or the average of 2 repetitions (for soybean for most of the tested compounds). However, for Compound A2 on soybean there was 1 repetion only.

[1] = test system: Glycine max (GLXMA, soybean) cultivar TMG133 (Roundup Ready glyphosate-tolerant); test: as above; conditions: 120 g/ha, crop
Description: as §1, §2, §3
Glycine max (GLXMA, soybean) cultivar “TMG133”—which is Roundup Ready™ glyphosate-tolerant soybean cultivar TMG133 (typically available from Monsanto in Brazil)—growth stage: 1st trifoliate.
as §4, §5, §6, §7, §8, §9, §10, §11, §12
Glycine max (GLXMA, soybean) cultivar “TMG133” is Roundup Ready™ glyphosate-tolerant soybean cultivar TMG133, and is typically available from Monsanto in Brazil.

Setaria faberi (SETFA) = test: as above; conditions: 8 g/ha; for percentage control of Setaria faberi: adjuvant 0.5% v/v TEHP + 1.0% v/v AMS + 12.5% v/v IPA
Description: as §1, §2, §3
Setaria faberi (SETFA)—growth stage 12 or 13
as §4, §5, §6, §7, §8, §9, §10, §11, §12

[2] = test system: Glycine max (GLXMA, soybean) cultivar Nikko; test: as above; conditions: 120 g/ha, crop
Description: as §1, §2, §3
Glycine max (GLXMA, soybean) cultivar “Nikko”—growth stage: 1st trifoliate
as §4, §5, §6, §7, §8, §9, §10, §11, §12

[3] = test system: Digitaria sanguinalis (DIGSA); test: as above; conditions: 8 g/ha; for percentage control of Digitaria sanguinalis: adjuvant 0.5% v/v TEHP + 1.0% v/v AMS + 12.5% v/v IPA
Description: as §1, §2, §3
Digitaria sanguinalis (DIGSA)—growth stage 12 or 13
as §4, §5, §6, §7, §8, §9, §10, §11, §12

[4] = test system: Zea mays (ZEAMX, maize/corn) cultivar Garland; test: as above; conditions: 8 g/ha; for percentage control of Zea mays: adjuvant 0.5% v/v TEHP + 1.0% v/v AMS + 12.5% v/v IPA
Description: as §1, §2, §3
Zea mays (ZEAMX, maize/corn, e.g. can occur as volunteer corn) cultivar “Garland”—growth stage 12 or 13
as §4, §5, §6, §7, §8, §9, §10, §11, §12
Zea mays (ZEAMX, maize, corn) is often present as a “volunteer” weed (“volunteer” corn) in fields where it was planted as a crop in preceding growing season(s) and where the present field crop is not corn.

Avena fatua (AVEFA) = test: Test 1 glasshouse assay, post-emergence herbicidal activity; conditions: 312 h, post-emergence (Example 1B Table 2), after 13 days, read-out: Percentage phytotoxicity AVEFA
Description: (§13) Seeds of a variety of test species are sown in standard soil in pots. After cultivation for one day (pre-emergence) or after 8 days cultivation (post-emergence) under controlled conditions in a glasshouse (at 24/16° C., day/night; 14 hours light; 65% humidity), the plants are sprayed with an aqueous spray solution derived from the formulation of the “technical” (i.e. unformulated) active ingredient in acetone/water (50:50) solution containing 0.5% Tween 20 (polyoxyethylene sorbitan monolaurate, CAS Registry Number 9005-64-5). The test plants are then grown on under controlled conditions in a glasshouse (at 24/16° C., day/night; 14 hours light; 65% humidity) and watered twice daily. After 13 days for pre- or post-emergence, the test is evaluated visually, and an assessed percentage phytotoxicity score is given for each herbicidal application on each plant species (where 100%=total damage to plant; 0%=no damage to plant).
(§14) Lolium perenne (LOLPE), Alopecurus myosuroides (ALOMY), Echinochloa crus-galli (ECHCG), and Avena fatua (AVEFA); these are all grassy monocotyledonous weeds. Cool climate crop plant: Triticum aestivum (TRZAW, winter wheat).

Lolium perenne (LOLPE) = test: as above; conditions: 312 h, post-emergence (Example 1B Table 2), after 13 days, read-out: Percentage phytotoxicity LOLPE
Description: as §13, §14

[5] = test system: Triticum aestivum (TRZAW, winter wheat); test: as above; conditions: 312 h, post-emergence (Example 1B Table 2), after 13 days, crop plant, read-out: Percentage phytotoxicity TRZAW
Description: as §13, §14

[6] = test system: Brachiaria decumbens (BRADC); test: Biological Example 3 glasshouse assay, post-emergence, various adjuvant systems; conditions: 8 g/ha, 14 DAA
Description: as §1, §2, §3
Brachiaria decumbens (BRADC)—growth stage (GS) 12 or 13 (or GS 12)—or, if BRADC is not used, then sometimes Brachiaria platyphylla (BRAPP)—growth stage 12 or 13
as §4, §5, §6, §7, §8, §9, §10
Compounds A2 and A7 were tested using the 0.5% v/v Hexamoll™ DINCH™+1.0% v/v AMS+12.5% v/v IPA adjuvant system. Compounds A11, A12, A14, A20 and A21 were tested using the 0.5% v/v tris-(2-ethylhexyl)phosphate (“TEHP”)+1.0% v/v AMS+12.5% v/v IPA adjuvant system. […]

[7] = 14 or 15 DAA, adjuvant 0.5% v/v TEHP + 1.0% v/v AMS + 12.5% v/v IPA
[8] = 14 DAA, adjuvant 0.5% v/v TEHP + 1.0% v/v AMS + 12.5% v/v IPA
[9] = 14 DAA, adjuvant 0.5% v/v Hexamoll DINCH + 1.0% v/v AMS + 12.5% v/v IPA

| Structure (SMILES) | percentage control of Eleusine indica (Eleusine indica (ELEIN); 14 or 15 DAA) | percentage phytotoxicity on Glycine max cultivar TMG133 [1, 7] | percentage control of Setaria faberi (Setaria faberi (SETFA); 14 or 15 DAA) | percentage phytotoxicity on Glycine max cultivar Nikko [2, 7] | percentage control of Digitaria sanguinalis ([3]; 14 or 15 DAA) | percentage control of Zea mays ([4]; 14 or 15 DAA) | pest or weed control at 62.5 g/ha (Avena fatua (AVEFA)) | pest or weed control at 250 g/ha (Avena fatua (AVEFA)) | pest or weed control at 62.5 g/ha (Lolium perenne (LOLPE)) | pest or weed control at 250 g/ha (Lolium perenne (LOLPE)) | plant injury at 62.5 g/ha [5] | plant injury at 250 g/ha [5] | other results |
| --- | --- | --- | --- | --- | --- | --- | --- | --- | --- | --- | --- | --- | --- |
| C#CCC1CC(=O)C(c2c(F)cc(-c3ccc(F)cc3)cc2OC)C1=O (centres unmarked) [Compound A20, 2-[2-fluoro-4-(4-fluorophenyl)-6-methoxyphenyl]-4-prop-2-ynylcyclopentane-1,3-dione] | 15% | 10% | 90% | 2% | 75% | 90% |  |  |  |  |  |  |  |
| C#CCC1CC(=O)C(c2c(Cl)cc(-c3ccc(F)c(F)c3)cc2OC)C1=O (centres unmarked) [Compound A13] |  |  |  |  |  |  | 100% | 100% | 90% | 100% | 80% | 80% |  |
| C#CCC1CC(=O)C(c2c(F)cc(-c3ccc(F)cc3F)cc2OC)C1=O (centres unmarked) [Compound A21] | 25% | 5% | 85% | 5% | 45% | 95% |  |  |  |  |  |  |  |
| C#CCC1CC(=O)C(c2c(Cl)cc(-c3ccc(Cl)cc3)cc2OC)C1=O (centres unmarked) [Compound A11, 2-[2-chloro-4-(4-chlorophenyl)-6-methoxyphenyl]-4-prop-2-ynylcyclopentane-1,3-dione] |  |  |  |  |  |  |  |  |  |  |  |  | percentage control of Eleusine indica (Eleusine indica (ELEIN); 14 DAA): 95%; percentage phytotoxicity on Glycine max cultivar TMG133 [1, 8]: 12.5%; percentage control of Setaria faberi (Setaria faberi (SETFA); 14 DAA): 98%; percentage control of Brachiaria decumbens (BRADC) ([6]; adjuvant 0.5% v/v TEHP + 1.0% v/v AMS + 12.5% v/v IPA): 99%; percentage phytotoxicity on Glycine max cultivar Nikko [2, 8]: 15%; percentage control of Digitaria sanguinalis ([3]; 14 DAA): 99%; percentage control of Zea mays ([4]; 14 DAA): 100% |
| C#CCC1CC(=O)C(c2c(Cl)cc(-c3ccc(F)cc3)cc2OC)C1=O (centres unmarked) [Compound A7] |  |  |  |  |  |  |  |  |  |  |  |  | percentage control of (phytotoxicity on) Eleusine indica (ELEIN) (Eleusine indica (ELEIN); [9]): 91.7%; percentage phytotoxicity on Glycine max cultivar TMG133 [1, 9]: 0%; percentage control of (phytotoxicity on) Setaria faberi (SETFA) (Setaria faberi (SETFA); [9]): 91.7%; percentage control of (phytotoxicity on) Brachiaria decumbens (BRADC) ([6]; adjuvant 0.5% v/v Hexamoll DINCH + 1.0% v/v AMS + 12.5% v/v IPA): 95%; percentage phytotoxicity on Glycine max cultivar Nikko [2, 9]: 2.5%; percentage control of (phytotoxicity on) Digitaria sanguinalis (DIGSA) [3, 9]: 95%; percentage control of (phytotoxicity on) Zea mays (ZEAMX, maize, corn) [4, 9]: 100% |
| C#CCC1CC(=O)C(c2c(Cl)cc(-c3ccc(Cl)cn3)cc2OC)C1=O (centres unmarked) [Compound A10] |  |  |  |  |  |  | 100% | 100% | 100% | 100% | 90% | 90% |  |
